# Biological target: HPK1 (Homo sapiens (Human), UniProt Q92918)
# Test: HPK1 biochemical enzyme assay (microfluidic mobility shift assay)
# Conditions: 1.5 nM HPK1, ATP 1 mM final, 30 min preincubation, 60 min at RT, Caliper EZ Reader; read-out: HPK1 1000UMATP caliper IC50
# Summary of the method: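 Mobility shift readout of HPK1 activity after a 60 min RT reaction with 1 mM ATP, 1 μM substrate and 5 mM MgCl2. Enzyme/substrate mix was first exposed to compounds for 30 min, using ten-point curves topping at 3 μM final.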
# Sequence of HPK1 (Q92918 whole entry): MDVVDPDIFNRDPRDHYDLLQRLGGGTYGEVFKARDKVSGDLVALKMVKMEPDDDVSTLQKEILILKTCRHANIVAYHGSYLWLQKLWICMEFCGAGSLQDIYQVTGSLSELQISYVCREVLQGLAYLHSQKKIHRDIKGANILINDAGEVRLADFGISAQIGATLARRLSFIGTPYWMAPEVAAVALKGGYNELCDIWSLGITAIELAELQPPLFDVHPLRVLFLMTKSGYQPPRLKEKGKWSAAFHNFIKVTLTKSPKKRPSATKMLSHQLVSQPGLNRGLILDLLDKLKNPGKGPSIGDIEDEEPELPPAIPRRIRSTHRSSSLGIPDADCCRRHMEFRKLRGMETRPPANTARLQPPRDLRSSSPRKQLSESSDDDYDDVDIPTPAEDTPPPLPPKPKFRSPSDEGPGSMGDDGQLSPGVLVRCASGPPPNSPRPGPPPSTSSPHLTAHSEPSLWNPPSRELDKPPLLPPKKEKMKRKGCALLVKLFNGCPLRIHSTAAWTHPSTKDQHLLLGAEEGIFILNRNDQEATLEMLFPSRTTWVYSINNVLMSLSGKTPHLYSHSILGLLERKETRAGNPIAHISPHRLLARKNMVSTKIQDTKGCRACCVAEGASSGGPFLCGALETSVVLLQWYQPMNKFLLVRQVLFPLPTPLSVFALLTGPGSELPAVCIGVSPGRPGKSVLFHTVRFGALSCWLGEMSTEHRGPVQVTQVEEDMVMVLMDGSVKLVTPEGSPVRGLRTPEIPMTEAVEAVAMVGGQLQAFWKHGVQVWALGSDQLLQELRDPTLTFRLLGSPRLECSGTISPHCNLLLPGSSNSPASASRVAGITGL
row,IC50,Compound
1,< 100 nM,"CN(C)Cc1nc(Nc2ccc(-c3cnc4cc(C(F)F)ccn34)c3c2C(=O)NC3)ccc1C1CCOC1 (stereo in doubt) [I-753, (R)-4-(7-(difluoromethyl)-imidazo[1,2-a]pyridin-3-yl)-7-((6-((dimethylamino)-methyl)-5-(tetrahydrofuran-3-yl)pyridin-2-yl)amino)isoin-dolin-1-one]"
2,< 100 nM,"CNC1CCN(c2ccc(Nc3ccc(-c4ccnc5[nH]ccc45)c4c3C(=O)NC4)nc2)CC1 [I-57, 7-[[5-[4-(methylamino)-1-piperidyl]-2-pyridyl]amino]-4-(1H-pyrrolo[2,3-b]pyridin-4-yl)isoindolin-1-one]"
3,< 100 nM,"CC(C)(O)[C@@H]1COCCN(c2ccc(Nc3ccc(-c4cnc5cc(F)ccn45)c4c3C(=O)NC4)nc2)C1 [I-627, (S)-4-(7-fluoroimidazo [1,2-a]pyridin-3-yl)-7-((5-(6-(2-hydroxypropan-2-yl)-1,4-oxazepan-4-yl)pyridin-2-yl)amino)isoin-dolin-1-one]"
4,100 to 1000 nM,"CC(C)(O)[C@@H]1CCCN(c2ccc(Nc3cnc(-c4cnc5cc(F)ccn45)c4c3C(=O)NC4)nc2)C1 [I-226, (R)-4-(7-fluoroimidazo[1,2-a]pyridin-3-yl)-7-((5-(3-(2-hydroxypropan-2-yl)piperidin-1-yl)pyridin-2-yl)amino)-2,3-dihydro-1H-pyrrolo[3,4-c]pyridin-1-one]"
5,> 1000 nM,"O=C1NCc2c(-c3c[nH]c4ccccc34)ncc(Nc3ccc(N4CC5CCC(C4)O5)cn3)c21 [I-10, 4-(1H-indol-3-yl)-7-[[5-(8-oxa-3-azabicyclo [3.2.1]octan-3-yl)-2-pyridyl]amino]-2,3-dihydropyrrolo [3,4-c]pyridin-1-one]"
6,< 100 nM,"Cn1ccc2c(-c3ccc(Nc4ccc(N5CCC[C@@H](O)C5)cn4)c4c3CNC4=O)ccnc21 [I-121, 7-[[5-[(3R)-3-hydroxy-1-piperidyl]-2-pyridyl]amino]-4-(1-methylpyrrolo [2,3-b]pyridin-4-yl)isoindolin-1-one]"
7,> 1000 nM,"CN1CCc2ccc(Nc3cnc(-c4ccnc5c4ccn5C)c4c3C(=O)NC4)nc2C1 [I-418, 4-(1-methyl-1H-pyrrolo[2,3-b]pyridin-4-yl)-7-((7-methyl-5,6,7,8-tetrahydro-1,7-naphthyridin-2-yl)amino)-2,3-dihydro-1H-pyrrolo[3,4-c]pyridin-1-one]"
8,< 100 nM,"O=C1NCc2c(-c3cnc4cnccn34)ccc(Nc3ccc(N4CCC[C@H](O)C4)cn3)c21 [I-169, 7-[[5-[(3S)-3-hydroxy-1-piperipyl]-2-pyridyl]amino]-4-imidazol[1,2-a]pyrazin-3-yl-isoindolin-1-one]"
9,> 1000 nM,"CN1CCC[C@H](c2cccc(Nc3cnc(-c4ccnc5c4ccn5C)c4c3C(=O)NC4)n2)C1 [I-419, (S)-4-(1-methyl-1H-pyrrolo[2,3-b]pyridin-4-yl)-7-((6-(1-methylpiperidin-3-yl)pyridin-2-yl)amino)-2.3-dihydro-1H-pyrrolo[3,4-c]pyridin-1-one]"
10,< 100 nM,"CN(C)Cc1nc(Nc2cnc(-c3ccnc4c3ccn4C)c3c2C(=O)NC3)ccc1[C@H]1CCOC1 [I-708, (R)-7-((6-((dimethylamino)methyl)-5-(tetrahydrofuran-3-yl)pyridin-2-yl)amino)-4-(1-methyl-1H-pyrrolo[2,3-b]pyridin-4-yl)-2,3-dihydro-1H-pyrrolo[3,4-c]pyridin-1-one]"
11,> 1000 nM,"O=C1NCc2c(-c3cnc4cnccn34)ccc(Nc3cc(N4CCC(O)CC4)ccn3)c21 [I-324, 7-((4-(4-hydroxy-piperidin-1-yl)pyridin-2-yl)amino)-4-(imidazo[1,2-a]pyrazin-3-yl)isoindolin-1-one]"
12,< 100 nM,CN(Cc1nc(Nc2ccc(-c3cnc4cc(F)ccn34)c3c2C(=O)NC3)ccc1[C@H]1CCOC1)C1CC1 [I-737]
13,< 100 nM,"CNC(C)(C)[C@H]1CN(c2ccc(Nc3ccc(-c4cnc5cc(F)ccn45)c4c3C(=O)NC4)nc2)CCO1 (single isomer, unassigned) [I-676]"
14,< 100 nM,"Cc1cc(Nc2ccc(N3CCC(O)CC3)cn2)c2c(c1-c1cnc3cc(F)ccn13)CNC2=O [I-389, 4-(7-fluoroimidazo [1,2-a]pyridin-3-yl)-7-((5-(4-hydroxypiperidin-1-yl)pyridin-2-yl)amino)-5-methylisoindol in-1-one]"
15,< 100 nM,"Cn1ccc2c(-c3ncc(Nc4ccc(N5CCC[C@H](O)C5)cn4)c4c3CNC4=O)ccnc21 [I-179, 7-[[5-[(3S)-3-hydroxy-1-piperidyl]-2-pyridyl]amino]-4-(1-methylpyrrolo [2,3-b]pyridin-4-yl)-2,3-dihydropyrrolo [3,4-c]pyridin-1-one]"
16,100 to 1000 nM,"CN1CCCc2c(-c3ccc(Nc4ccc(N5CCNCC5)cn4)c4c3CNC4=O)ccnc21 [I-118, 4-(8-methyl-6.7-dihydro-5H-1,8-naphthyridin-4-yl)-7-[(5-piperazin-1-yl-2-pyridyl)amino] isoindolin-1-one]"
17,< 100 nM,"CN1CCN(c2ccc(Nc3ccc(-c4nnc5ccccn45)c4c3C(=O)NC4)nc2)CC1 [I-85, 7-[[5-(4-methylpiperazin-1-yl)-2-pyridyl]amino]-4-([1,2,4]triazolo [4,3-a]pyridin-3-yl)isoindolin-1-one]"
18,100 to 1000 nM,"Cn1ccc2c(-c3ncc(Nc4cccc(N5CC[C@@H]6CNC[C@@H]65)n4)c4c3CNC4=O)ccnc21 [I-441, 7-((6-((3aR,6aR)-hexahydro-pyrrolo[3,4-b]pyrrol-1(2H)-yl)pyridin-2-yl)amino)-4-(1-methyl-1H-pyrrolo[2,3-b)pyridin-4-yl)-2,3-dihydro-1H-pyrrolo[3,4-c]pyridin-1-one]"
19,< 100 nM,"CN(Cc1nc(Nc2ccc(-c3cnc4cc(F)ccn34)c3c2C(=O)NC3)ccc1C1CCOC1)CC(F)(F)F (stereo in doubt) [I-765, (R)-4-(7-fluoroimidazo [1,2-a]pyridin-3-yl)-7-((6-((methyl(2,2,2 trifluoroethyl)amino)methyl)-5-(tetrahydrofuran-3-yl)pyridin-2-yl)amino)isoin-dolin-1-one]"
20,< 100 nM,"Cn1ccc2c(-c3ncc(Nc4cccc(C5CNC5)n4)c4c3CNC4=O)ccnc21 [I-415, 7-((6-(azetidin-3-yl)pyridin-2-yl)amino)-4-(1-methyl-1H-pyrrolo[2.3-b]pyridin-4-yl)-2,3-dihydro-1H-pyrrolo[3,4-c]pyridin-1-one]"
21,< 100 nM,"CC(C)(O)[C@H]1COCCN(c2ccc(Nc3ccc(-c4cnc5cc(F)ccn45)c4c3C(=O)NC4)nc2)C1 [I-626, (R)-4-(7-fluoroimidazo [1,2-a]pyridin-3-yl)-7-((5-(6-(2-hydroxypropan-2-yl)-1,4-oxazepan-4-yl)pyridin-2-yl)amino)isoin-dolin-1-one]"
22,< 100 nM,"CN(C)C(C)(C)C1CN(c2ccc(Nc3ccc(-c4cnc5cc(F)ccn45)c4c3C(=O)NC4)nc2)CCO1 (centres unmarked) [I-564, 7-((5-(2-(2-(dimethylami-no)propan-2-yl)morpholino)pyridin-2-yl)amino)-4-(7-fluoroimidazo [1,2-a]pyridin-3-yl)isoindolin-1-one]"
23,< 100 nM,"CN(C)Cc1nc(Nc2ccc(-c3cnc4cc(F)ccn34)c3c2C(=O)NC3)ccc1N1CCC[C@@H](O)C1 [I-524, 7-[[6-[(dimethylamino)-methyl]-5-[(3R)-3-hydroxy-1-piperipyl]-2-pyridyl]amino]-4-(7-fluoroimidazo [1,2-a]pyridin-3-yl)isoindolin-1-one]"
24,< 100 nM,"O=C1NCc2c(-c3cnc4cc(Cl)ccn34)ccc(Nc3ccc(N4CCOCC(O)C4)cn3)c21 (stereo in doubt) [I-596, (R)-4-(7-chloroimidazo [1,2-a]pyridin-3-yl)-7-((5-(6-hydroxy-1.4-oxazepan-4-yl)pyridin-2-yl)amino)isoin-dolin-1-one]"
25,< 100 nM,"O=C1NCc2c(-c3cnc4c(F)cccn34)ccc(Nc3ccc(N4CCC(O)CC4)cn3)c21 [I-130, 4-(8-fluoroimidazo [1,2-a]pyridin-3-yl)-7-[[5-(4-hydroxy-1-piperidyl)-2-pyridyl]amino] isoindolin-1-one]"
26,< 100 nM,"O=C1NCc2c(-c3cnc4cnccn34)ccc(Nc3ccc(N4CCCOCC4)cn3)c21 [I-300, 7-((5-(1,4-oxazepan-4-yl)pyridin-2-yl)amino)-4-(imidazo[1,2-a]pyrazin-3-yl)isoindolin-1-one]"
27,< 100 nM,"CO[C@]1(CN(C)C)CCCN(c2ccc(Nc3ccc(-c4cnc5cc(F)ccn45)c4c3C(=O)NC4)nc2)C1 [I-612, (S)-7-((5-(3-((dimethylamino)-methyl)-3-methoxy-piperidin-1-yl)pyridin-2-yl)amino)-4-(7-fluoroimidazo [1,2-a]pyridin-3-yl)isoindolin-1-one]"
28,< 100 nM,"C[C@@H]1CC[C@](C)(O)CN1c1ccc(Nc2ccc(-c3cnn4c3CCCC4)c3c2C(=O)NC3)nc1 (stereo in doubt) [I-597, 7-((5-((2S,5S)-5-hydroxy-2,5-dimethyl-piperidin-1-yl)pyridin-2-yl)amino)-4-(4,5,6,7-tetrahydropyra-zolo[1,5-a]pyridin-3-yl)isoindolin-1-one]"
29,100 to 1000 nM,"O=C1NCc2c(-c3cnc4n3CCCCC4)ccc(Nc3ccc(N4CCC(O)CC4)cn3)c21 [I-288, 7-((5-(4-hydroxy-piperidin-1-yl)pyridin-2-yl)amino)-4-(6,7,8,9-tetrahydro-5H-imidazo[1,2-a]azepin-3-yl)isoindolin-1-one]"
30,< 100 nM,"Cn1ccc2c(-c3ncc(Nc4ccc(N5CCO[C@H](C(C)(C)O)C5)cn4)c4c3CNC4=O)ccnc21 [I-471, 7-[[5-[(2S)-2-(1-hydroxy-1-methyl-ethyl)morpholin-4-yl]-2-pyridyl]amino]-4-(1-methylpyrrolo [2,3-b]pyridin-4-yl)-2,3-dihydropyrrolo [3,4-c]pyridin-1-one]"

row,Compound,IC50
1,"Cn1ccc2c(-c3ccc(Nc4ccc(N5CCNCC5)cn4)c4c3CNC4=O)cccc21 [I-102, 4-(1-methylindol-4-yl)-7-[(5-piperazin-1-yl-2-pyridyl)amino] isoindolin-1-one]",< 100 nM
2,"(R)-7-((6- ((dimethylamino)- methyl)-5- (tetrahydrofuran- 3-yl)pyridin- 2-yl)amino)-4- (8-methylimidazo [1,2-a]pyridin- 3-yl)isoindolin- 1-one [I-696]",< 100 nM

# From patent US11021481B2, “Substituted isoindolin-1-ones and 2,3-dihydro-1h-pyrrolo[3,4-c]pyridin-1-ones as HPK1 antagonists” (Nimbus Saturn, Inc., priority 2019, dated 2021)
